Values after ≈ are worked out from the molar mass of the structure shown. Where two headings read alike, the source gives them in different places.
How the values were obtained:
[1] = Microsomal stability: incubation with human liver microsomes, residual parent compound by HPLC-MS/MS; assay type: in vitro ADME; details: up to 60 min, read-out: t1/2 hLM
Experimental: Metabolic stability of compounds of the present invention was determined by incubation with human liver microsomes and subsequent determination of residual amount of the respective compound (“parent compound”) by HPLC-MS/MS.
In order to achieve this, in a final reaction volume of 1000 μl, each compound was incubated at a final concentration of 1 μM with 0.5 mg/ml human liver microsomes (HLM Pool 50 Donors, 20 mg/ml, BD Gentest, #452156, LotNr 88114) in 0.1 M Potassium phosphate buffer at pH 7.4, with a cofactor in form of a NADPH regenerating system (Promega, #V9510) according to the manufacturers' specifications. The final DMSO concentration in each sample was 0.4%. The incubation was performed at 37° C. under shaking conditions (Thermomixer, 1400 rpm) for different time intervals up to 60 min. To stop the reaction, for each time point 200 μl of the reaction were taken out and 200 μl ice-cold acetonitrile was added. Then, the samples were centrifuged (4° C., 14000*g for 15 min). The supernatant was analyzed for residual parent compound concentration and scanned for metabolites using HPLC-MS/MS. By using optimized MS methods for each compound, the peak area under curve for the compound specific signal is determined. The change of the peak areas over the assay time of 60 min resemble the remaining parent compound in % of T0. By these points, a balancing line was set. The half-time, as well as the clearance, can then be calculated on the basis of the slope.

[2] = Aqueous solubility in 50 mM phosphate buffer (HPLC/DAD); assay type: physicochemical; details: 50 mM phosphate buffer, 23 °C, pH 7.4, aqueous buffer, kinetic from dmso stock, aqueous solubility class; read-out: aq. solub.
Experimental: To achieve this, the samples (final volume 500 μl, 200 μM compound concentration) were incubated for 24 hours at 23° C. under continuous shaking at 1400 rpm (Thermomixer, Eppendorf) in aqueous phosphate buffers (pH 4.0, 6.0, 7.4 and 9.0) with a final DMSO concentration of 1%. To separate the undissolved compound from the solution, the samples were centrifuged (30 min 18000 g at 23° C.). Supernatants were measured via HPLC equipped with a UV detector and concentrations were calculated according to signals of a standard curve. The standard curve was prepared by diluting a stock solution of each compound (c=0.1 mg/ml; received by adding 10 μl of 20 mM compound in DMSO to 914 μl MeCN) in a certain amount of MeCN to cover a range of 0.1 to 200 μg/ml.

INF-γ = assay: Cytokine assay: INF-γ production by human PBMC stimulated with PHA; assay type: cell-based; details: Homo sapiens, PBMC, IC50 class, read-out: IFN-gamma Inhib.
How it was run: (§1)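 Human donor PBMC (1×10^5 cells/well) were activated with 2 μg/ml PHA and exposed to compounds for 48 h. Supernatant IL-17A, IL-17F and IFN-γ were measured by Luminex or ELISA. Screening used 10, 1, 0.1 and 0.01 μM; IC50 values came from semilogarithmic titrations.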

IL-17A = assay: Cytokine assay: IL-17A production by human PBMC stimulated with PHA; assay type: cell-based; details: IC50 class, read-out: IL-17A Inhib.
How it was run: as §1

IL-17F = assay: Cytokine assay: IL-17F production by human PBMC stimulated with PHA; assay type: cell-based; details: IC50 class, read-out: IL-17F Inhib.
How it was run: as §1

[3] = human liver microsomes 0.5 mg/ml, compound 1 μM, pH 7.4, 37° C.
[4] = pH 7.4, human liver microsomes, 1 μM compound, 0.5 mg/ml HLM, 37° C.

half-life at 1 μM [1, 3] [min]	solubility at 24 h [2] [µM]	IC50 (INF-γ) [µM]	IC50 (IL-17A; Homo sapiens, PBMC) [µM]	IC50 (IL-17F; Homo sapiens, PBMC) [µM]	IC50 (IL-17A) [µM]	IC50 (IL-17F) [µM]	half-life at 1 μM [1, 4] [min]	SMILES
		< 0.05	< 0.05	< 0.05			2 to 9.99	CC(C)(O)CCn1ncc(-c2onc(-c3cccc(OCCCN4CCS(=O)(=O)CC4)c3Cl)c2-c2ncccn2)c1C(F)(F)F [Example 141, 4-[3-(2-chloro-3-{5-[1-(3-hydroxy-3-methylbutyl)-5-(trifluoromethyl)-1H-pyrazol-4-yl]-4-(pyrimidin-2-yl)-1,2-oxazol-3-yl}phenoxy)propyl]-thiomorpholine-1,1-dione]
	> 10	0.05 to 0.5	0.5 to 5	0.5 to 5				CCN(CC)CCOc1cccc(-c2noc(-c3cnn(CCC(C)(C)O)c3C)c2-c2ncccn2)c1Cl [Example 144, 4-[4-(3-{2-chloro-3-[2-(diethylamino)ethoxy]phenyl}-4-(pyrimidin-2-yl)-1,2-oxazol-5-yl)-5-methyl-1H-pyrazol-1-yl]-2-methylbutan-2-ol]
		0.05 to 0.5	0.5 to 5	0.5 to 5			> 100	Cc1c(-c2onc(-c3cccc(OCCN(C)C)c3Cl)c2-c2ncccn2)cnn1CCC(C)(C)O [Example 145, 4-[4-(3-{2-chloro-3-[2-(dimethylamino)ethoxy]phenyl}-4-(pyrimidin-2-yl)-1,2-oxazol-5-yl)-5-methyl-1H-pyrazol-1-yl]-2-methylbutan-2-ol]
		0.05 to 0.5	0.05 to 0.5	0.5 to 5			> 100	Cc1c(-c2onc(-c3cccc(OCCN4CCCC4)c3Cl)c2-c2ncccn2)cnn1CCC(C)(C)O [Example 146, 4-[4-(3-{2-chloro-3-[2-(pyrrolidin-1-yl)ethoxy]phenyl}-4-(pyrimidin-2-yl)-1,2-oxazol-5-yl)-5-methyl-1H-pyrazol-1-yl]-2-methylbutan-2-ol]
		< 0.05	< 0.05	< 0.05			2 to 9.99	COC(=O)c1c(-c2cccc(OCCN3CCOCC3)c2Cl)noc1-c1cnn(C[C@H](C)O)c1C(F)(F)F [Example 148, methyl 3-{2-chloro-3-[2-(morpholin-4-yl)ethoxy]phenyl}-5-{1-[(2S)-2-hydroxypropyl]-5-(trifluoromethyl)-1H-pyrazol-4-yl}-1,2-oxazole-4-carboxylate]
		< 0.05	< 0.05	< 0.05			2 to 9.99	COCc1c(-c2cccc(OCCN3CCOCC3)c2Cl)noc1-c1cnn([C@H]2C[C@@](C)(O)C2)c1C(F)(F)F [Example 150, 3-[4-(3-{2-chloro-3-[2-(morpholin-4-yl)ethoxy]phenyl}-4-(methoxymethyl)-1,2-oxazol-5-yl)-5-(trifluoromethyl)-1H-pyrazol-1-yl]-1-methylcyclobutan-1-ol]
		0.05 to 0.5	0.05 to 0.5	0.05 to 0.5			> 100	COCc1c(-c2cccc(OCCN(C)C)c2Cl)noc1-c1cnn([C@H]2C[C@@](C)(O)C2)c1C(F)(F)F [Example 151, 3-[4-(3-{2-chloro-3-[2-(dimethylamino)ethoxy]phenyl}-4-(methoxymethyl)-1,2-oxazol-5-yl)-5-(trifluoromethyl)-1H-pyrazol-1-yl]-1-methylcyclobutan-1-ol]
		0.05 to 0.5	0.05 to 0.5	0.05 to 0.5			2 to 9.99	COCc1c(-c2cccc(OCCN3CCOCC3)c2Cl)noc1-c1cnn([C@H]2C[C@](C)(O)C2)c1C(F)(F)F [Example 152, 3-[4-(3-{2-chloro-3-[2-(morpholin-4-yl)ethoxy]phenyl}-4-(methoxymethyl)-1,2-oxazol-5-yl)-5-(trifluoromethyl)-1H-pyrazol-1-yl]-1-methylcyclobutan-1-ol]
		0.5 to 5	≥ 5	0.5 to 5			> 100	COCc1c(-c2cccc(OCCN(C)C)c2Cl)noc1-c1cnn([C@H]2C[C@](C)(O)C2)c1C(F)(F)F [Example 153, 3-[4-(3-{2-chloro-3-[2-(dimethylamino)ethoxy]phenyl}-4-(methoxymethyl)-1,2-oxazol-5-yl)-5-(trifluoromethyl)-1H-pyrazol-1-yl]-1-methylcyclobutan-1-ol]

Continued, compound first:

SMILES	half-life at 1 μM [1, 3] [min]	solubility at 24 h [2] [µM]	IC50 (INF-γ) [µM]	IC50 (IL-17A; Homo sapiens, PBMC) [µM]	IC50 (IL-17F; Homo sapiens, PBMC) [µM]	IC50 (IL-17A) [µM]	IC50 (IL-17F) [µM]	half-life at 1 μM [1, 4] [min]
CCOC(=O)c1c(-c2c(F)cccc2Cl)noc1-c1cnn(CC(O)CC)c1C(F)(F)F (racemic) [Example 14, ethyl 3-(2-chloro-6-fluorophenyl)-5-[1-(2-hydroxybutyl)-5-(trifluoromethyl)-1H-pyrazol-4-yl]-1,2-oxazole-4-carboxylate]	10 to 40	3 to 9.99 (≈ 1.43 to 4.75 µg/mL)	< 0.05	< 0.05	< 0.05			
CCOC(=O)c1c(-c2c(F)cccc2Cl)noc1-c1cnn(CC(O)C(F)(F)F)c1C(F)(F)F (racemic) [Example 15, ethyl 3-(2-chloro-6-fluorophenyl)-5-[1-(3,3,3-trifluoro-2-hydroxypropyl)-5-(trifluoromethyl)-1H-pyrazol-4-yl]-1,2-oxazole-4-carboxylate]	2 to 9.99	3 to 9.99 (≈ 1.55 to 5.15 µg/mL)	< 0.05	< 0.05	< 0.05			
[2H]C(C)(O)Cn1ncc(-c2onc(-c3c(F)cccc3Cl)c2-c2nccs2)c1C(F)(F)F (racemic) [Example 31, 1-{4-[3-(2-chloro-6-fluorophenyl)-4-(1,3-thiazol-2-yl)-1,2-oxazol-5-yl]-5-(trifluoromethyl)-1H-pyrazol-1-yl}(2-^2H)propan-2-ol]	40 to 100	< 1	< 0.05	< 0.05	< 0.05			
[2H]C(C)(O)Cn1ncc(-c2onc(-c3c(F)cccc3Cl)c2C(=O)OCC)c1C(F)(F)F (racemic) [Example 32, ethyl 3-(2-chloro-6-fluorophenyl)-5-{1-[2-hydroxy(2-^2H)propyl]-5-(trifluoromethyl)-1H-pyrazol-4-yl}-1,2-oxazole-4-carboxylate]	40 to 100	> 10	< 0.05	< 0.05	< 0.05			
[2H]C(C)(O)Cn1ncc(-c2onc(-c3c(F)cccc3Cl)c2C(=O)OC)c1C(F)(F)F (racemic) [Example 33, methyl 3-(2-chloro-6-fluorophenyl)-5-{1-[2-hydroxy(2-^2H)propyl]-5-(trifluoromethyl)-1H-pyrazol-4-yl}-1,2-oxazole-4-carboxylate]	> 100	> 10	< 0.05	< 0.05	< 0.05			
C[C@]1(O)C[C@H](n2ncc(-c3onc(-c4c(F)cccc4Cl)c3C(=O)OC3CC3)c2C(F)(F)F)C1 [Example 51, cyclopropyl 3-(2-chloro-6-fluorophenyl)-5-{1-[3-hydroxy-3-methylcyclobutyl]-5-(trifluoromethyl)-1H-pyrazol-4-yl}-1,2-oxazole-4-carboxylate]	40 to 100	3 to 9.99 (≈ 1.5 to 4.99 µg/mL)				0.05 to 0.5	< 0.05	
COCc1c(-c2c(F)cccc2Cl)noc1-c1cnn(CC(C)(C)O)c1C(F)(F)F [Example 65, 1-(4-(3-(2-chloro-6-fluorophenyl)-4-(methoxymethyl)isoxazol-5-yl)-5-(trifluoromethyl)-1H-pyrazol-1-yl)-2-methylpropan-2-ol]		> 10	0.5 to 5	0.5 to 5	0.5 to 5			
COCc1c(-c2c(F)cccc2Cl)noc1-c1cnn(C[C@@H](C)O)c1C(F)(F)F [Example 66, (2R)-1-(4-(3-(2-chloro-6-fluorophenyl)-4-(methoxymethyl)isoxazol-5-yl)-5-(trifluoromethyl)-1H-pyrazol-1-yl)propan-2-ol]		> 10	< 0.05	0.05 to 0.5	0.05 to 0.5			

Source: US11292788B2, “IL-17 and IFN-gamma inhibition for the treatment of autoimmune diseases and chronic inflammation” (Immunic AG, priority 2017, dated 2022)
